Data from patent publication US5045319A, “Transdermal dosage unit, system and process” (Rutgers, The State University of New Jersey, priority 1988, dated 1991).

Experiments:
[1] = in-vivo plasma propranolol after topical application of TMAD on inner pinna of rabbit; conditions: FIG. A-7, rabbits
Protocol: (§1) Both in-vitro release and skin permeation studies can then be conducted by mounting the device (with or without skin) onto a Valia-Chien diffusion cell at 37° C. In-vivo studies can be conducted by placing the patch on the pinna (ear) of a rabbit and taking blood samples which can be analyzed for propranolol (results on the attached sheets).

[2] = in-vitro release of propranolol from multilaminate transdermal device (Valia-Chien diffusion cell, without skin); format: physicochemical; conditions: for RELEASE RATE OF PROPRANOLOL: Example 2, SPE-m-TAD
Protocol: as §1
The release rate of drug from the SPE-m-TAD can be changed by the alteration of the drug load in the outer drug laminate.

[3] = in-vitro skin permeation of propranolol from TMAD (Valia-Chien diffusion cell, with skin); format: in vitro ADME; conditions: delivered from TMAD
Protocol: as §1
In this case, the enhancer laminate would be fabricated by combining an aliphatic alcohol with adhesive in a 1.25:10 ratio. The enhancer laminate would then be solvent cast and laminated as in Example 1. The devices can then be evaluated in-vitro and in-vivo. (results shown on the attached sheets).

CC(C)NCC(O)COc1cccc2ccccc12 (racemic) [propranolol, Propranolol]
plasma concentration profiles of propranolol ([1]; 24-hr topical application of TMAD on inner pinna ear): long-acting plasma concentration profiles | systemic bioavailability of propranolol, as shown by plasma levels ([1]; 24-hr topical application of TMAD with various skin permeation enhancers): improved the systemic bioavailability, as shown by elevated constant plasma levels | RELEASE RATE OF PROPRANOLOL ([2]; propranolol drug load in outer drug laminate 3%): 48.1 ug cm^-2 hr^-1 | RELEASE RATE OF PROPRANOLOL ([2]; propranolol drug load in outer drug laminate 5%): 49.9 ug cm^-2 hr^-1 | RELEASE RATE OF PROPRANOLOL ([2]; propranolol drug load in outer drug laminate 7%): 52.2 ug cm^-2 hr^-1 | RELEASE RATE OF PROPRANOLOL ([2]; propranolol drug load in outer drug laminate 20%): 59.1 ug cm^-2 hr^-1 | drug release kinetics ([2]; FIG. A-2, only extremely small particle size (1.5 μm) propranolol crystals in outer laminate layer): Device-controlled zero-order drug release kinetics was achieved | zero-order release profile of propranolol from TMAD, effect of skin permeation enhancers ([2]; FIG. A-3, various skin permeation enhancers in contact adhesive polymer coating): did not affect the zero-order release profile | overall release of propranolol from the device ([2]; SPE-m-TAD, decreasing drug load in outer drug laminate, particle size 1.5 microns): can be reduced, while still maintaining zero-order release kinetics | enhancement in skin permeation rate of propranolol by alkyl alcohols ([3]; FIG. A-4, dependence on alkyl chain length n of alcohols): The rate of skin permeation increases as increasing the alkyl chain length of the alcohols and reaches the maximum level at n=12~14 | enhancement in skin permeation rate of propranolol by alkanoic acids ([3]; FIG. A-5, dependence on alkyl chain length n of acids): The rate of skin permeation shows a sinoidal dependence on the alkyl chain length of the acids and with the maximum rates at n=3 and 16 | enhancement in skin permeation rate of propranolol by esters of Lauric Acid (n=12) ([3]; FIG. A-6, dependence on alkyl chain length n of esters): The rate of skin permeation increases first and then levels off as increasging the alkyl chain length of the esters and reaches the maximum level at n=2
